For data set [1], the system named is MDA-MB-231 cells. Nature of the data set: Hoechst 33342/PI double staining assay. Format: cell-based, human. The settings on record: 0, 6, 12.5 μM; 48 h. The protocol:
The cells were seeded in a 6-well plate, and after their adherence to the plate, the medium was changed with a complete medium containing different concentrations of inhibitors. After 48 h of treatment, the cells were washed three times with 4°C cold PBS, and incubated with 5 μl/ml Hoechst 33,342 for 15 min. The cells were washed again three times using PBS and incubated with 5 μl/ml PI for 15 min.

Data set [2] concerns Nav1.5. The settings on record: HEK293 cells heterologously expressing Nav1.5; ref Zhang et al., 2018; cited from earlier work.
The target in data set [3] is T1, MDA-MB-231 sodium channels (Homo sapiens, UniProt Q14524).
T1 construct: host or cells: MDA-MB-231
Nature of the data set: Whole-cell patch clamp, sodium currents in MDA-MB-231 cells. It counts as cell-based. The protocol: (§1) Sodium currents in experimental cells were recorded at room temperature (22°C–25°C) using an EPC-10 patch-clamp amplifier (HEKA, Germany) in a whole-cell patch-clamp configuration. Recording pipettes were made from borosilicate glass capillaries (VWR, United States) using a PC-10 puller (Narishige, Japan). The inner solution (mM): KCl 130, NaCl 15, CaCl2 0.37, MgCl2 1 EGTA 1, HEPES 10, pH 7.2, resistance was measured as 1.8 MO. The outer solution was composed of (mM): NaCl 140, KCl 3, MgCl2 1, CaCl2 1, HEPES 10, pH 7.2. To minimize voltage errors, the series resistance compensation was set to 80%. The P/4 protocol was used to subtract the linear capacitance and leakage current. Experimental data were acquired and analyzed using the pulse fit 8.0 program (HEKA, Germany). The needed concentrations of toxin dissolved in external solution were applied to the cell surface by microinjector.
The biological activity of synthetic JZTX-14 in MDA-MB-231 cells was recorded using the whole-cell patch-clamp method. MDA-MB-231 sodium channels are sensitive to JZTX-14. […] The inward sodium current was induced by a 50 ms depolarisation potential of −30 mV at a holding potential of −100 mV (Figure 3A). The inhibition by JZTX-14 was concentration-dependent (Figure 3B). […] Next, we determined the effects of JZTX-14 on the current-voltage (I–V) curves of sodium channels resulting from a series of currents induced by a set of depolarising potentials ranging from −100 to +60 mV when cells were held at −100 mV (Figure 3C). […] We also investigated the effect of JZTX-14 on the steady-state inactivation of sodium channels in MDA-MB-231 cells. […] shifted the inactivation curves for sodium channels by approximately 10 mV (Figure 3D).
For orientation: The patch-clamp technique gives a direct electrical read-out from membranes.

The test system of data set [4] is Nav1.5. Format: cell-based. As to conditions: 50 ms depolarisation to −30 mV, holding potential −100 mV, room temperature (22°C–25°C), mean ± SEM. As to the method: as §1
To determine the biological activity of synthetic and natural JZTX-14 on Nav1.5, we observed their effects on HEK293T cells heterologously expressing Nav1.5 using a whole-cell voltage-clamp configuration. The current traces were induced by a 50 ms depolarisation potential of −30 mV at a holding potential of −100 mV. Currents were recorded by adding 0.1 μM and 0.5 μM of JZTX-14 to the solution.

Data set [5] deals with MDA-MB-231 cells. Nature of the data set: Scratch wound assay (cell migration). It counts as cell-based, human. As to conditions: 12.5 μM, DMEM/F12 containing 0.2% BSA. The protocol: The MDA-MB-231 cells were seeded into a six-well plate at an appropriate density to form a single layer of cells. After 12 h, a sterile 200 μl pipette tip was used to produce a linear scraping wound, which was cultured with DMEM/F12 containing 0.2% BSA and different concentrations of inhibitors. The cells were imaged at 0 h, 24 h and 48 h, after scratch induction. ImageJ software was used to analyze the images and quantify cell migration.

For data set [6], the system named is MDA-MB-231 cells. Nature of the data set: Quantitative real-time PCR validation of migration and invasion-related genes. The settings on record: JZTX-14-treated MDA-MB-231 cells. It counts as cell-based, human. (In qPCR the cycle at which signal appears reflects the starting amount.)
Data set [7] relates to MDA-MB-231 cells. Nature of the data set: CCK-8 cell proliferation assay. It counts as cell-based, human.
Data set [8] concerns MDA-MB-231 cells. Nature of the data set: RNA sequencing, differentially expressed genes. The settings on record: 12.5 μM, 48 h. It counts as cell-based, human. The protocol:
Total RNA was extracted from untreated (C) MDA-MB-231 cells and MDA-MB-231 cells treated with a concentration of 12.5 μM JZTX-14 (GL) for 48 h using TRIzol reagent. RNA concentration was first quantified using a NanoDrop 2000 spectrophotometer and further accurately quantified using an Agilent 2100/4200 for RNA sample mass and concentration. The extracted total RNA was stored at −70°C. The sample mRNA was enriched with magnetic beads with Oligo (dT), and then the mRNA was broken into short fragments which subsequently used as a template to synthesize the first strand of cDNA with six-base random primers. The second cDNA strand was synthesized by adding buffer, dNTPs, and enzymes, and the acquired double-stranded cDNA was purified, end-repaired, A-tailed, and connected to sequencing junctions. Next, the fragment size was selected and the cDNA library was enriched by PCR amplification, followed by accurate qualification of the effective concentration of the library using qPCR. […]
The reads after rRNA removal were compared with the reference genome using Hisat2 software. Gene level quantification was performed separately for each sample using FeatureCount and combined to obtain the gene expression matrix of all samples. Correlation coefficients between samples were calculated based on the expression values (FPKM) of genes in each sample. […]

“Also recorded” adds a separate entry of the source. Read-outs that look alike come from different tables or passages of the source. Where a SMILES comes first, the peptide text is derived from it. Bridges are numbered along the chain shown (N, C = ends).

The values that follow come from PMC10076671, “Spider venom-derived peptide JZTX-14 prevents migration and invasion of breast cancer cells via inhibition of sodium channels” (Frontiers in Pharmacology, 2023).

As a reminder, the IC50 is the concentration that inhibits the measured activity by half. Turning to `CC[C@H](C)[C@H](NC(=O)[C@@H]1CSSC[C@@H]2NC(=O)[C@@H]3CCCN3C(=O)[C@@H]3CCCN3C(=O)[C@H](CCC(N)=O)NC(=O)CNC(=O)[C@@H]3CCCN3C(=O)[C@H](Cc3c[nH]cn3)NC(=O)[C@@H]3CSSC[C@H](NC(=O)[C@H](C)NC(=O)[C@H](CC(C)C)NC(=O)CNC(=O)[C@H](CO)NC(=O)[C@H](CSSC[C@H](NC(=O)CN)C(=O)N[C@@H](CCC(N)=O)C(=O)N[C@@H](CCCCN)C(=O)N[C@@H](Cc4ccccc4)C(=O)N[C@@H](Cc4ccccc4)C(=O)N[C@@H](Cc4c[nH]c5ccccc45)C(=O)N[C@@H]([C@@H](C)O)C(=O)N3)NC2=O)C(=O)N[C@@H]([C@@H](C)O)C(=O)N[C@@H](Cc2c[nH]c3ccccc23)C(=O)N2CCC[C@H]2C(=O)N[C@@H]([C@@H](C)O)C(=O)N[C@@H](CCC(=O)O)C(=O)N[C@@H]([C@@H](C)CC)C(=O)N1)C(=O)N[C@@H](CC(C)C)C(N)=O` [JZTX-14] (H-GCQKFFWTCHPGQPPCCSGLACTWPTEICIL-NH2; disulfide 2-17, 9-22, 16-29), in the data set with MDA-MB-231 cells [1], the “Apoptosis and necrosis (Hoechst 33342/PI staining)” value is “no apoptosis and necrosis; also recorded: no significant effect on the necrosis”. Also, in the data set on Nav1.5 [2], the “Inhibition of Nav1.5 function” value is “effectively inhibits”. Moreover, the “Inhibition of inward sodium currents (in words)” value in data set [3] (500 nM and 1 μM, 50 ms depolarisation to −30 mV, holding potential −100 mV) is recorded as “inhibited the inward sodium currents”. The “Shift of steady-state inactivation curves of sodium channels” value in data set [3] (1 μM (Figure 3D), 6 cells per point, direction not given) is on record as “approximately 10 mV”. In addition, the “Shift of activation thresholds of sodium channels” value in data set [3] (1 μM, in the depolarising direction, I–V curves from −100 to +60 mV, holding potential −100 mV) is given as “approximately 10 mV”. Besides, the IC50 in data set [3] (Hill equation fit, 50 ms depolarisation to −30 mV, holding potential −100 mV, synthetic JZTX-14, 6 cells per point, read-out: IC50, inhibition of sodium current) was 401 nM. For the same compound, the “Inhibition of Nav1.5 current” value with Nav1.5 [4] (0.1 μM, listed as Synthetic JZTX-14, 0.1 µM) is recorded as 30.3% ± 2.5%. Also, the “Inhibition of Nav1.5 current” value with Nav1.5 [4] (0.5 μM, listed as Synthetic JZTX-14, 0.5 µM) is reported as 53.4% ± 2.5%. Besides, the “Inhibition of migration (scratch assay)” value in the data set with MDA-MB-231 cells [5] (24 h) amounted to 72%. In addition, in the data set with MDA-MB-231 cells [5] (48 h), the “Inhibition of migration (scratch assay)” value turned out to be 80%. In the data set with MDA-MB-231 cells [6], the “ANGPTL4 expression (qPCR)” value is on record as “downregulated”, the “FBXO2 expression (qPCR)” value is given as “downregulated”, the “GJB3 expression (qPCR)” value is listed as “downregulated” and the “HMGN5 expression (qPCR)” value is “downregulated”. Moreover, in the data set on MDA-MB-231 cells [6], the “IL-24-F expression (qPCR)” value is “upregulated”, the “PLAC1 expression (qPCR)” value is on record as “downregulated”, the “S100A4 expression (qPCR)” value is listed as “downregulated” and the “SERPINB2 expression (qPCR)” value was “upregulated”. The “Cell survival rate (CCK-8)” value in the data set with MDA-MB-231 cells [7] (1.5, 3, 6, 12.5, 25, 50, and 100 μM, 24 h, OD 450 nm) is “did not affect the survival rate”. Also, the “Cell survival rate (CCK-8)” value in the data set with MDA-MB-231 cells [7] (25, 50, and 100 μM, 48 h, not statistically different compared to the control group) was “slightly reduced the survival rate”. For the same compound, in the data set on MDA-MB-231 cells [8], the “Downregulated genes associated with migration and invasion” value was “ANGPTL4, S100A4, GJB3, FBXO2, PLAC1, and HMGN5”; the “Upregulated genes associated with migration and invasion” value is “IL-24-F and SERPINB2”.
